Experimental data from patent US20240384311A1, “POLYHYDROXYALKANOATES AND METHODS OF MAKING THEREOF” (The Board of Trustees of the Leland Stanford Junior …, priority 2021, published 2024).
Read-outs that look alike come from different tables or passages of the source.

Tests used:
Assay type in all cases: cell-based
[1] = tested on: Cupriavidus necator H16 ΔphaC1 hadA-phaC1437; conditions: shake-flask, 30° C., determined from 20 mM down in steps of 5 mM until acceptable growth
Method: (§1) Liquid cultures under heterotrophic conditions were conducted in 500 mL vented, baffled shake-flasks (WHEATON® Erlenmeyer Flasks with DuoCap®. DWK Life Sciences), incubated with shaking at 180 rpm on an innova 2300 platform shaker (New Brunswick Scientific) at 30° C. For feeding experiments, precultures of the engineered C. necator strains were inoculated in liquid RB+kan (50 mL) from solid RB+kan and grown over-night. In the morning the medium was exchanged for MSM+kan, diluting the culture 1:2 (in 100 mL). In the afternoon the seed-culture was washed with MSM and again diluted 1:2 (in 200 mL) with MSM+kan+polymer-precursor and induced with arabinose (1 g/L, unless indicated otherwise) in the evening. OD was monitored accompanied by collection of supernatant samples.
(§2) In a PHA-negative knock-out mutant (ΔphaC1) of the type-strain ‘H16’, pct540 & phaC1437 and hadA & phaC1437 were expressed, respectively.
(§3) Toxicity limits of the respective hydroxy carbonic acids were determined outgoing from 20 mM down in steps of 5 mM until acceptable growth was obtained in shake-flask experiments at 30° C.
(§4) Cultivations conducted on minimal salt medium with 30 g/L fructose as carbon-source and 2 g/L ammonium chloride as nitrogen-source (limiting). Cultures were inoculated at an OD600 of ≈0.5-1.

[2] = tested on: Cupriavidus necator H16 ΔphaC1 pct540-phaC1437; conditions: for Concentration (maximum non-toxic concentration of hydroxyalkanoate): H16 ΔphaC1 pct540-phaC1437, shake-flask, 30° C., determined from 20 mM down in steps of 5 mM until acceptable growth; for final biomass: H16 ΔphaC1 pct540-phaC1437 cultivated with the hydroxyalkanoate at its listed concentration, 30 g/L fructose, 2 g/L ammonium chloride
Method: as §1, §2, §3, §4

[3] = tested on: Cupriavidus necator H16 wild-type; test: Shake-flask cultivation with externally supplied hydroxy carbonic acids (toxicity limit, growth), wild-type strain; conditions: for final biomass: H16 wild-type cultivated with the hydroxyalkanoate at its listed concentration, 2 g/L ammonium chloride
Method: as §1, §2, §3, §4

[4] = H16 wild-type, shake-flask, 30° C., determined from 20 mM down in steps of 5 mM until acceptable growth, MSM, 30 g/L fructose

Compound	Concentration (maximum non-toxic concentration of hydroxyalkanoate) [1]	Concentration (maximum non-toxic concentration of hydroxyalkanoate) [2]	final biomass [2]	final biomass ([3]; 30 g/L fructose)	Concentration (maximum non-toxic concentration of hydroxyalkanoate) [3, 4]	Concentration (maximum non-toxic concentration of hydroxyalkanoate) [3]
O=C(O)C(O)CCc1ccccc1 (centres unmarked) [2-hydroxy-4-phenylbutanoic acid]	15 mM					
O=C(O)CCO [3-hydroxypropanoic acid]	20 mM	20 mM	1.6 g/L	5.7 g/L	20 mM	
O=C(O)CCCO [4-hydroxybutanoic acid]	20 mM	20 mM	1.9 g/L	4.1 g/L	20 mM	
O=C(O)CCCCCO [6-hydroxyhexanoic acid]	(<10 mM)	(<10 mM)	1.5 g/L	3.5 g/L	(<10 mM)	
O=C(O)/C=C/c1ccc(O)c(O)c1 [caffeic acid]	5 mM					
O=C(O)CO [glycolic acid]			1.4 g/L	6.8 g/L		
CC(O)C(=O)O (centres unmarked) [lactic acid]			1.9 g/L	18.2 g/L		20 mM
O=C(O)C(O)c1ccccc1 (centres unmarked) [mandelic acid]	5 mM					
O=C(O)/C=C/c1ccc(O)cc1 [para-coumaric acid]	5 mM					
O=C(O)C(O)Cc1ccccc1 (centres unmarked) [phenyllactic acid]	10 mM					
O=C(O)CCc1ccc(O)cc1 [phloretic acid]	5 mM					
